Data: article PMC7988117, “OMN6 a novel bioengineered peptide for the treatment of multidrug resistant Gram negative bacteria” (Scientific Reports, 2021)
Where two headings read alike, the source gives them in different places.

Experiments:
A. baumannii BAA-1793 = settings: determined by ATCC according to CLSI guidelines, ref ATCC; cited from earlier work
From the text: Supplement 41598_2021_86155_MOESM1_ESM.docx, table 3: Table S3. Supplementary information about the resistance pattern of the bacterial strain A. baumannii BAA-1793 used in the Minimum Inhibitory Concentration study presented in Table 1.

E. faecium BAA-2319 = settings: determined by ATCC according to CLSI guidelines, ref ATCC; cited from earlier work
From the text: Supplement 41598_2021_86155_MOESM1_ESM.docx, table 2: Table S2. Supplementary information about the resistance pattern of the bacterial strain E. faecium BAA-2319 used in the Minimum Inhibitory Concentration study presented in Table 1.

Staphylococcus aureus = experiment: VITEK 2 antimicrobial sensitivity characterization; assay type: cell-based; settings: VITEK 2 system, CLSI ranges
Protocol: (§1) This experiment was conducted by Omnix Medical, by JMI Laboratories (North Liberty, IA, USA) and by Aptuit (Verona) S.r.l. (Italy), an Evotec Company. All studies were performed according to Clinical and Laboratory Standards Institute guidelines[30] for the application of the broth microdilution method. Reference strains from American Type Culture Collection (ATCC) and clinical isolates from the Evotec EvostrAIn and the JMI Laboratories SENTRY surveillance program culture collections (Acinetobacter baumannii: ACC 00445, ACC 00527, ACC 00535, ATCC 17978, ATCC 19606, ATCC BAA-1793, ACC 01076, ACC 01077, NCTC 13420, JMI #1088100 and JMI #1001007; Klebsiella pneumoniae: ATCC 43816 and ATCC BAA-1705; Escherichia coli: ACC 01001 and ATCC 25922; Staphylococcus aureus: ATCC 29213, ATCC BAA-44 and ATCC 33591; Bacillus cereus: ATCC 14579; Enterococcus faecalis: ATCC 29212; Enterococcus faecium: ATCC BAA-2319) were used. The antimicrobial activity of OMN6 was determined by 12 serial two-fold dilutions in water of the 100-fold highest compound solution; 1 µL of each well was transferred into 96 microtiter plates (final concentration: 256–0.12 µg/mL). In most strains, same procedure was used to determine the colistin antimicrobial activity (final concentration: 32–0.015 µg/mL). Bacterial strains were sub-cultured on the agar plates and incubated for 18–24 h at 35 ± 2 °C in ambient air. Following incubation, the inoculum was prepared from isolated colonies and adjusted to 0.5 McFarland turbidity standard (1 to 2 × 10^8 colony-forming units/mL) in 0.9% saline. Bacterial suspension was then diluted 1:200 in Muller-Hinton broth (from BD; Becton, Dickinson and Company, Franklin Lakes, NJ, USA) and within 15 min 100 µL/well were dispensed. Growth-control wells and sterility-check wells (uninoculated well) were present in each plate. Plates were incubated for 18–24 h at 35 ± 2 °C in ambient air. […] The antimicrobial activity to other antibiotics on most bacterial strains was determined by Evotec using the antimicrobial sensitive test from the VITEK 2 automated microbiology system (bioMérieux SA, Marcy l'Etoile, France; data presented in Table S1), or by ATCC according to CLSI (Clinical and Laboratory Standards Institute) guidelines[30]
Table S1. Supplementary information about the resistance pattern of 14 bacterial strains used in the Minimum Inhibitory Concentration study presented in Table 1. The resistance pattern of the different bacterial isolates was characterized by broth microdilution studies (for colistin) or with the VITEK 2 system (for the other antibiotics).

Acinetobacter baumannii = settings: Difco Muller Hinton Broth, data not shown
Protocol: as §1

[1] = tested on: Acinetobacter baumannii clinical isolates; experiment: Time-kill studies; assay type: cell-based; settings: Difco Muller Hinton Broth
Protocol: Time-kill experiments were performed by JMI Laboratories (North Liberty, IA, USA) as described in chapter 5.14 of the Clinical Microbiology Procedures Handbook[32] and the CLSI M26-A[33] document. Two Acinetobacter baumannii clinical isolates (JMI colistin-sensitive strain #1088100 and colistin-resistant strain #1001007) were used for this study. MIC values that were determined in Difco Muller Hinton Broth (BD) for OMN6 and colistin as described above, were used as the baseline values during time-kill testing. In the time-kill experiments, OMN6 and colistin were tested in Difco Muller Hinton Broth. The time-kill cultures were sampled at 0, 2, 4, 8, and 24 h after compound addition. The number of CFU/mL in each culture was measured by plating 100 μL of serial dilutions onto blood agar plates. Colonies were counted after 48 h of growth at 35 °C. Time-kill curves were generated by plotting CFU/mL as log10 values over time. The limit of detection was 10 CFU/mL. Bactericidal activity was defined as a ≥ 99.9% reduction (i.e., a ≥ 3 log10 decrease) in the number of input bacterial cells at any arbitrary timepoint.

## CC1(C)S[C@@H]2[C@H](NC(=O)[C@H](N)c3ccccc3)C(=O)N2[C@H]1C(=O)O [Ampicillin]
A. baumannii BAA-1793
  Resistance pattern: R
E. faecium BAA-2319
  Resistance pattern: R

## CN(C)c1cc(NC(=O)CNC(C)(C)C)c(O)c2c1C[C@H]1C[C@H]3[C@H](N(C)C)C(O)=C(C(N)=O)C(=O)[C@@]3(O)C(O)=C1C2=O [Tigecycline]
A. baumannii BAA-1793
  Resistance pattern: S
E. faecium BAA-2319
  Resistance pattern: S

## CO/N=C(\C(=O)N[C@@H]1C(=O)N2C(C(=O)OC(C)OC(C)=O)=C(COC(N)=O)CS[C@H]12)c1ccco1 (stereo partly shown) [Cefuroxime Axetil]
A. baumannii BAA-1793
  Resistance pattern: R

## CN(C)[C@@H]1C(O)=C(C(N)=O)C(=O)[C@@]2(O)C(O)=C3C(=O)c4c(O)cccc4[C@@](C)(O)[C@H]3C[C@@H]12 [TET, tetracycline]
Staphylococcus aureus; S. aureus ATCC 29213
  VITEK characterization (resistance range): S
Staphylococcus aureus; S. aureus ATCC 33591
  VITEK characterization (resistance range): R
A. baumannii BAA-1793
  Resistance pattern: R
E. faecium BAA-2319
  Resistance pattern: R

## CO/N=C(\C(=O)N[C@@H]1C(=O)N2C(C(=O)[O-])=C(C[N+]3(C)CCCC3)CS[C@H]12)c1csc(N)n1 [Cefepime]
A. baumannii BAA-1793
  Resistance pattern: R

## CO[C@@]1(NC(=O)C2SC(=C(C(N)=O)C(=O)O)S2)C(=O)N2C(C(=O)O)=C(CSc3nnnn3C)CS[C@@H]21 (stereo partly shown) [Cefotetan]
A. baumannii BAA-1793
  Resistance pattern: R

## C[C@H]1[C@H](NC(=O)/C(=N\OC(C)(C)C(=O)O)c2csc(N)n2)C(=O)N1S(=O)(=O)O [Aztreonam]
A. baumannii BAA-1793
  Resistance pattern: R

## NCC[C@H](O)C(=O)N[C@@H]1C[C@H](N)[C@@H](O[C@H]2O[C@H](CN)[C@@H](O)[C@H](O)[C@H]2O)[C@H](O)[C@H]1O[C@H]1O[C@H](CO)[C@@H](O)[C@H](N)[C@H]1O [Amikacin]
A. baumannii BAA-1793
  Resistance pattern: S

## CO/N=C(\C(=O)N[C@@H]1C(=O)N2C(C(=O)O)=CCS[C@H]12)c1csc(N)n1 [Ceftizoxime]
A. baumannii BAA-1793
  Resistance pattern: R

## C[C@H]1COc2c(N3CCN(C)CC3)c(F)cc3c(=O)c(C(=O)O)cn1c23 [Levofloxacin]
E. faecium BAA-2319
  Resistance pattern: R

## O=C1CN(/N=C/c2ccc([N+](=O)[O-])o2)C(=O)N1 [Nitrofurantoin]
A. baumannii BAA-1793
  Resistance pattern: R
E. faecium BAA-2319
  Resistance pattern: R

## COCC1=C(C(=O)O)N2C(=O)[C@@H](NC(=O)/C(=N\OC)c3csc(N)n3)[C@H]2SC1 [Cefpodoxime]
A. baumannii BAA-1793
  Resistance pattern: R

## C[C@@H](O)[C@H]1C(=O)N2C(C(=O)O)=C(S[C@@H]3CN[C@H](C(=O)N(C)C)C3)[C@H](C)[C@H]12 [Meropenem]
A. baumannii BAA-1793
  Resistance pattern: R

## NC[C@H]1O[C@H](O[C@H]2[C@H](O)[C@@H](O[C@H]3O[C@H](CO)[C@@H](O)[C@H](N)[C@H]3O)[C@H](N)C[C@@H]2N)[C@H](N)C[C@@H]1O [Tobramycin]
A. baumannii BAA-1793
  Resistance pattern: R

## CCn1cc(C(=O)O)c(=O)c2cc(F)c(N3CCNCC3)cc21 [Norfloxacin]
A. baumannii BAA-1793
  Resistance pattern: R

## Cc1onc(-c2ccccc2)c1C(=O)N[C@@H]1C(=O)N2[C@@H]1SC(C)(C)[C@@H]2C(=O)O [OXA, oxacillin]
Staphylococcus aureus; S. aureus ATCC 29213
  VITEK characterization (resistance range): S
Staphylococcus aureus; S. aureus ATCC 33591
  VITEK characterization (resistance range): R

## CO/N=C(\C(=O)N[C@@H]1C(=O)N2C(C(=O)O)=C(COC(N)=O)CS[C@H]12)c1ccco1 [Cefuroxime]
A. baumannii BAA-1793
  Resistance pattern: R

## CC[C@H]1OC(=O)[C@H](C)[C@@H](O[C@H]2C[C@@](C)(OC)[C@@H](O)[C@H](C)O2)[C@H](C)[C@@H](O[C@@H]2O[C@H](C)C[C@H](N(C)C)[C@H]2O)[C@](C)(O)C[C@@H](C)C(=O)[C@H](C)[C@@H](O)[C@]1(C)O [ERY, erythromycin]
Staphylococcus aureus; S. aureus ATCC 29213
  VITEK characterization (resistance range): S
Staphylococcus aureus; S. aureus ATCC 33591
  VITEK characterization (resistance range): R
E. faecium BAA-2319
  Resistance pattern: R

## Cc1nnc(SCC2=C(C(=O)O)N3C(=O)[C@@H](NC(=O)Cn4cnnn4)[C@H]3SC2)s1 [Cefazolin]
A. baumannii BAA-1793
  Resistance pattern: R

## CC(=O)OCC1=C(C(=O)O)N2C(=O)[C@@H](NC(=O)Cc3cccs3)[C@H]2SC1 [Cefalotin]
A. baumannii BAA-1793
  Resistance pattern: R

## CO/N=C(\C(=O)N[C@@H]1C(=O)N2C(C(=O)O)=C(CSc3nc(=O)c(=O)[nH]n3C)CS[C@H]12)c1csc(N)n1 [Ceftriaxone]
A. baumannii BAA-1793
  Resistance pattern: R

## CO[C@@]1(NC(=O)Cc2cccs2)C(=O)N2C(C(=O)O)=C(COC(N)=O)CS[C@@H]21 [Cefoxitin]
A. baumannii BAA-1793
  Resistance pattern: R

## CCn1cc(C(=O)O)c(=O)c2ccc(C)nc21 [Nalidixic Acid]
A. baumannii BAA-1793
  Resistance pattern: R

## colistin
Acinetobacter baumannii; A. baumannii JMI #1001007 colistin-resistant strain
  MIC colistin value: 8 µg/mL
Acinetobacter baumannii; A. baumannii JMI #1088100 colistin-sensitive strain
  MIC colistin value: 0.5 µg/mL
[1]; colistin-resistant A. baumannii JMI #1001007, bactericidal = ≥ 3 log10 decrease
  Concentrations with bactericidal effect: 16 to 32 µg/mL
[1]; colistin-sensitive A. baumannii JMI #1088100, bactericidal = ≥ 3 log10 decrease
  Concentrations with bactericidal effect after 2 h of incubation: > 0.25 µg/mL
[1]; colistin-sensitive A. baumannii JMI #1088100, sampled 0, 2, 4, 8, 24 h
  Re-growth during the 24 h timeframe: No re-growth

## COc1c(N2C[C@@H]3CCCN[C@@H]3C2)c(F)cc2c(=O)c(C(=O)O)cn(C3CC3)c12 [Moxifloxacin]
A. baumannii BAA-1793
  Resistance pattern: R

## CCC[C@@H]1C[C@@H](C(=O)N[C@@H]([C@H]2O[C@H](SC)[C@H](O)[C@@H](O)[C@H]2O)[C@H](C)Cl)N(C)C1 [CLI, clindamycin]
Staphylococcus aureus; S. aureus ATCC 29213
  VITEK characterization (resistance range): S
Staphylococcus aureus; S. aureus ATCC 33591
  VITEK characterization (resistance range): R

## CC1(C)S[C@@H]2[C@H](NC(=O)Cc3ccccc3)C(=O)N2[C@H]1C(=O)O [Benzylpenicillin]
E. faecium BAA-2319
  Resistance pattern: R

## CCN1CCN(C(=O)N[C@@H](C(=O)N[C@@H]2C(=O)N3[C@@H]2SC(C)(C)[C@@H]3C(=O)O)c2ccccc2)C(=O)C1=O [Piperacillin]
A. baumannii BAA-1793
  Resistance pattern: R

## CC1(C)S[C@@H]2[C@H](NC(=O)[C@H](C(=O)O)c3ccsc3)C(=O)N2[C@H]1C(=O)O [Ticarcillin]
A. baumannii BAA-1793
  Resistance pattern: R

## CN[C@H](CC(C)C)C(=O)N[C@H]1C(=O)N[C@@H](CC(N)=O)C(=O)N[C@H]2C(=O)N[C@H]3C(=O)N[C@H](C(=O)N[C@H](C(=O)O)c4cc(O)cc(O)c4-c4cc3ccc4O)[C@H](O)c3ccc(c(Cl)c3)Oc3cc2cc(c3O[C@@H]2O[C@H](CO)[C@@H](O)[C@H](O)[C@H]2O[C@H]2C[C@](C)(N)[C@H](O)[C@H](C)O2)Oc2ccc(cc2Cl)[C@H]1O [VAN, vancomycin]
Staphylococcus aureus; S. aureus ATCC 29213
  VITEK characterization (resistance range): S
Staphylococcus aureus; S. aureus ATCC 33591
  VITEK characterization (resistance range): S
E. faecium BAA-2319
  Resistance pattern: R
